Test results published in ChEMBL document CHEMBL5344458, “AI in Pharma: Transforming Drug Discovery and Strategic Management with MYC-Modulating Compounds and BET Protein Inhibitors” (ACS Med Chem Lett, 2024).

Key:
[1] = Half life in Sprague-Dawley rat at 1 mg/kg,iv administration by LC-MS/MS analysis; type: ADME, organism-based; settings: in vivo
[2] = Oral bioavailability in Sprague-Dawley rat at 5 mg/kg administration by LC-MS/MS analysis; type: ADME, organism-based; settings: in vivo

Structure (SMILES)	half-life [1] [min]	bioavailability [2] [%]
CNC(=O)c1[nH]c(C(=O)NC2CCC2)cc1OC(C)c1ccc(Cl)cc1 (stereo not drawn)	24	47
CNC(=O)c1[nH]c(C(=O)NC2CCC2)cc1OC(C)c1ccccc1 (stereo not drawn)	54	66
CNC(=O)c1[nH]c(C(=O)NC2CC2)cc1O[C@@H](C)c1ccccc1F	–	70
CCNC(=O)c1cc(OC(C)c2ccccc2F)c(C(=O)NC)[nH]1 (stereo not drawn)	24	46
CNC(=O)c1[nH]c(C(=O)NC2COC2)cc1OC(C)c1ccc(Cl)cc1 (stereo not drawn)	36	15
CCNC(=O)c1cc(OC(C)c2ccc(Cl)cc2)c(C(=O)NC)[nH]1 (stereo not drawn)	66	30
CNC(=O)c1[nH]c(C(=O)NC2CCC2)cc1OC(C)c1ccccc1F (stereo not drawn)	30	58
CNC(=O)c1[nH]c(C(=O)N[C@H]2CC[C@H](O)CC2)cc1OC(C)c1ccc(Cl)cc1F (stereo partly drawn)	84	66
CCNC(=O)c1cc(OC(C)c2ccc(Cl)cc2F)c(C(=O)NC)[nH]1 (stereo not drawn)	18	69
CNC(=O)c1[nH]c(C(=O)NC2CCC2)cc1OC(C)c1ccc(Cl)cc1F (single isomer, unassigned)	–	65
